# Columns and labels:
# Trypsin = target: T1, Trypsin (Bos taurus, UniProt P00760); assay: Anti-trypsin activity (inhibition of TAME hydrolysis); assay type: biochemical; conditions: read-out: ID50, trypsin
# T1 sequence (P00760 24-246): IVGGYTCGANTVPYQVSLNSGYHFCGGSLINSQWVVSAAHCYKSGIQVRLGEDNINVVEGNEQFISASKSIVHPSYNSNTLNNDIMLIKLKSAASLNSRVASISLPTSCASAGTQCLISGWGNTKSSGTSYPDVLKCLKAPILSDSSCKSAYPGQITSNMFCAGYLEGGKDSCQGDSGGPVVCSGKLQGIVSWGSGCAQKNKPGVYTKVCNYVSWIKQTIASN
# In short: (§1)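 Inhibition of enzymatic TAME (tosylarginine methyl ester) hydrolysis, per Muramatsu et al. Values are ID50, the molar concentration of compound inhibiting 50% of each enzyme's TAME-hydrolysing activity.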
# Plasmin = Plasmin (Homo sapiens, UniProt P00747); assay: Anti-plasmin activity (inhibition of TAME hydrolysis); assay type: biochemical; conditions: read-out: ID50, plasmin
# In short: as §1
# Kallikrein = assay: Anti-kallikrein activity (inhibition of TAME hydrolysis); assay type: biochemical; conditions: read-out: ID50, kallikrein
# In short: as §1
# Thrombin = Thrombin (Homo sapiens, UniProt P00734); assay: biochemical; conditions: TAME hydrolysis; read-out: ID50, thrombin
# Clr = target: T2, Clr (Homo sapiens, UniProt P00736); assay: Anti-Cl esterase activity, Clr (AAME hydrolysis); assay type: biochemical; conditions: hydrolysis of AAME; read-out: Anti-Cl activity, Clr (ID50)
# T2 sequence (P00736 464-705 limits assumed): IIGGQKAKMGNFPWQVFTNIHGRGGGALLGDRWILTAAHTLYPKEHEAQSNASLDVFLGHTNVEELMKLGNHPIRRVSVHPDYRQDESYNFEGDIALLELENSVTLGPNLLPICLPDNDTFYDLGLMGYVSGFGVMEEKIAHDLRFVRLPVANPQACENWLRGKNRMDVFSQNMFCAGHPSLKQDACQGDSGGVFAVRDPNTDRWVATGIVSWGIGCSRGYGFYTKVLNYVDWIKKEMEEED
# T2 sequence (P00736 18-463 limits assumed): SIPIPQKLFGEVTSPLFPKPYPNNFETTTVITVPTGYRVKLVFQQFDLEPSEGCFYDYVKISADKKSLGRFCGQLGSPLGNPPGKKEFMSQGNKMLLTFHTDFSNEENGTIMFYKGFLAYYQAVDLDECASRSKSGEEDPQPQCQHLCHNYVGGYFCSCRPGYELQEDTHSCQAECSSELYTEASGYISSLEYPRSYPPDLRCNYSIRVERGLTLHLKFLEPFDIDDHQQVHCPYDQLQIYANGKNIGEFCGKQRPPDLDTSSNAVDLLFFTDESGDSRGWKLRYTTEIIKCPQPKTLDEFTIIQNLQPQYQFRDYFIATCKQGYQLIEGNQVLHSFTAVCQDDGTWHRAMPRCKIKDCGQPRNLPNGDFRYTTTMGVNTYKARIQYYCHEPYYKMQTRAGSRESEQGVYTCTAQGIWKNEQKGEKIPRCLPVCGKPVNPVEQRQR
# Experimental: The anti-Cl esterase ([…]) activity was determined according to the method of Okamura et al. [K. Okamura, M. Muramatsu and B. Fujii, Biochem. Biophys.
# Cls = target: T3, Cls (Homo sapiens, UniProt P09871); assay: Anti-Cl esterase activity, Cls (ATEE hydrolysis); assay type: biochemical; conditions: hydrolysis of ATEE; read-out: Anti-Cl activity, Cls (50% inhibition)
# T3 sequence (P09871 438-688 limits assumed): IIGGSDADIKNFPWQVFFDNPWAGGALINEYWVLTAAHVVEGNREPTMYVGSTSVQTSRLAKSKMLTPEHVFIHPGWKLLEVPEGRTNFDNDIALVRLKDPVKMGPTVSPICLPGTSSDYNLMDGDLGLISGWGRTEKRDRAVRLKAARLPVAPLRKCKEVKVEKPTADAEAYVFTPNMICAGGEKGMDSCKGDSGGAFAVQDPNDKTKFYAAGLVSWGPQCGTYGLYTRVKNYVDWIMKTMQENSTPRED
# T3 sequence (P09871 16-437 limits assumed): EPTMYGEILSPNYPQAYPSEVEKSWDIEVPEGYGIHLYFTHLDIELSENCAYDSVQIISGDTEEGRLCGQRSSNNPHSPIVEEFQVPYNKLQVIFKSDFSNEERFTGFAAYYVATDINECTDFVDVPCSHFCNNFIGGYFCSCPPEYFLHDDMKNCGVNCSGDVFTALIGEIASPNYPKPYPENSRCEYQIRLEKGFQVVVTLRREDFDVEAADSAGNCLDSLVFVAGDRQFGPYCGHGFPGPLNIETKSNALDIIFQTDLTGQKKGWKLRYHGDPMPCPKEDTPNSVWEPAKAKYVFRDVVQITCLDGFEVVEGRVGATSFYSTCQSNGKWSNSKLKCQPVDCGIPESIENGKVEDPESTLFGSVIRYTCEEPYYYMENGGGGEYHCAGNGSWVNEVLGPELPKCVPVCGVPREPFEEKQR
# Experimental: The anti-Cl esterase (Clr, Cls) activity was determined according to the method of Okamura et al. [K. Okamura, M. Muramatsu and B. Fujii, Biochem. Biophys. […] The figures in Table 2 have the following meanings:
# Cls: Molar concentration of the test compound which inhibits 50% of the ability of Cls to hydrolyse ATEE (acetyltyrosin ethyl ester).
# complement = assay: Inhibition of complement mediated hemolysis; assay type: cell-based
# Sequence of Plasmin (P00747 581-810 limits assumed, species assumed): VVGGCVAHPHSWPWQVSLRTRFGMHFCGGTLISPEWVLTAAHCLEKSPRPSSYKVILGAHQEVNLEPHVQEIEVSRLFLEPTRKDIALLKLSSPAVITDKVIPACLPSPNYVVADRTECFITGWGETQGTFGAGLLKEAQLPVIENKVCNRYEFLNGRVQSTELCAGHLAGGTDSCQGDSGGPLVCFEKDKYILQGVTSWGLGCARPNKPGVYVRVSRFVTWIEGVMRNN
# Sequence of Plasmin (P00747 97-580 limits assumed, species assumed): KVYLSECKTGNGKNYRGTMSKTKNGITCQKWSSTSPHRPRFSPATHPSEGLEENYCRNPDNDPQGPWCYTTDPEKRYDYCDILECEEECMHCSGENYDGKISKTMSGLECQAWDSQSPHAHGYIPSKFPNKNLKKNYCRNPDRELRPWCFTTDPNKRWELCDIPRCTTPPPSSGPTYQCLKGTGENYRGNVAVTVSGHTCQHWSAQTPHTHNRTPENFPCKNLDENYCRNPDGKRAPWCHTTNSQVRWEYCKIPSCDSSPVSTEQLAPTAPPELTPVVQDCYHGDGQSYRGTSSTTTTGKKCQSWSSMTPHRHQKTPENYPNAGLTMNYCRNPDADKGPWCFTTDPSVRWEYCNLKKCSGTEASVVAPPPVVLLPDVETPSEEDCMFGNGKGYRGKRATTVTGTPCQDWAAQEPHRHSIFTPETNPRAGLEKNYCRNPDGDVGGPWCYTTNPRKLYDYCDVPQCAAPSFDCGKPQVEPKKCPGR
IC50 (Trypsin) [nM],IC50 (Plasmin) [nM],IC50 (Kallikrein) [nM],IC50 (Thrombin) [nM],IC50 (Clr) [nM],IC50 (Cls) [nM],Compound,Inhibition of complement mediated hemolysis (%) (complement; compound at 1 × 10^-4),Inhibition of complement mediated hemolysis (%) (complement; compound at 1 × 10^-5),Inhibition of complement mediated hemolysis (%) (complement; compound at 1 × 10^-6),Inhibition of complement mediated hemolysis (%) (complement; compound at 1 × 10^-7)
10000,10000,10000,10000,> 10000,> 10000,"COc1cc(C(=N)N)ccc1OC(=O)CCCCCNC(=N)N [Compound 14, 4-amidino-2-methoxyphenyl 6-guanidinocaproate]",63.6,16.2,7.0,0
40,2000,30000,2000,4000,700,COc1cc(C(=N)N)ccc1OC(=O)c1ccc(NC(=N)N)cc1 [Compound 71],90.6,35.3,2.7,9.0
3000,> 10000,> 10000,4000,> 10000,2000,"N=C(N)c1ccc(OC(=O)c2ccccc2)c(C(=O)O)c1 [Compound 24, 4-amidino-2-carboxyphenyl benzoate]",88.2,29.1,11.0,16.7
20,300,400,90,2000,200,"CC(=O)Oc1ccc(C=CC(=O)Oc2ccc(C(=N)N)cc2C(=O)c2ccccc2)cc1 [Compound 54, 4-amidino-2-benzoylphenyl 4-acetyloxycinnamate]",99.1,98.6,79.4,41.1
> 10000,> 10000,> 10000,> 10000,> 10000,> 10000,COc1cc(C(=N)N)ccc1OC(=O)[C@H]1CC[C@H](CN)CC1 [Compound 17],98.6,78.2,20.4,0

# More lines, now with the values behind:
Compound,IC50 (Trypsin) [nM],IC50 (Plasmin) [nM],IC50 (Kallikrein) [nM],IC50 (Thrombin) [nM],IC50 (Clr) [nM],IC50 (Cls) [nM],Inhibition of complement mediated hemolysis (%) (complement; compound at 1 × 10^-4),Inhibition of complement mediated hemolysis (%) (complement; compound at 1 × 10^-5),Inhibition of complement mediated hemolysis (%) (complement; compound at 1 × 10^-6),Inhibition of complement mediated hemolysis (%) (complement; compound at 1 × 10^-7)
"COC(=O)c1cc(C(=N)N)ccc1OC(=O)[C@H]1CC[C@H](CNC(=O)OCc2ccccc2)CC1 [Compound 18, 4-amidino-2-methoxycarbonylphenyl trans-4-benzyloxycarbonylaminomethylcyclohexanecarboxylate]",3000,500,1000,4000,> 10000,2000,98.8,73.2,11.4,2.2
"N=C(N)c1ccc(OC(=O)CCCCCNC(=O)OCc2ccccc2)c(C(=O)c2ccccc2)c1 [Compound 12, 4-amidino-2-benzoylphenyl 6-benzyloxycarbonylaminocaproate]",6000,> 10000,> 10000,4000,> 10000,5000,91.3,57.8,15.0,3.8
CC=CC=CC(=O)Oc1ccc(C(=N)N)cc1C(=O)OC [Compound 5],700,300,1000,2000,5000,900,100,97.0,47.2,3.0
"N=C(N)c1cc(Br)c(OC(=O)c2ccc3c(c2)OCO3)c(Br)c1 [Compound 47, 4-amidino-2,6-dibromophenyl 3,4-methylenedioxybenzoate]",> 10000,> 10000,> 10000,> 10000,> 10000,30,33.5,10.4,13.4,0
"N=C(N)c1ccc(OC(=O)c2ccccc2)c(Cl)c1 [Compound 26, 4-amidino-2-chlorophenyl benzoate]",400,400,2000,60,200,300,100.0,99.4,61.6,16.7
"Cc1cc(OC(=O)c2ccccc2)ccc1C(=N)N [Compound 22, 4-amidino-3-methylphenyl benzoate]",> 10000,> 10000,> 10000,2000,6000,> 10000,22.8,0,0,0
"CC(=O)Nc1ccc(C(=O)Oc2ccc(C(=N)N)cc2C(=O)c2ccccc2)cc1 [Compound 56, 4-amidino-2-benzoylphenyl 4-acetylaminobenzoate]",50,300,400,60,1000,500,99.1,98.1,88.1,20.4
COc1cc(C(=N)N)ccc1OC(=O)c1ccc(C)cc1 [Compound 35],1000,5000,> 10000,3000,400,300,88.8,43.9,29.9,11.8
"N=C(N)c1ccc(OC(=O)c2ccc(OCc3ccccc3)cc2)c(C(=O)c2ccccc2)c1 [Compound 45, 4-amidino-2-benzoylphenyl 4-benzyloxybenzoate]",20,300,400,200,900,400,0,90.2,6.0,0
